#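 Five concentrations, 48 hours, 96-well plates. Here, GI50 denotes the concentration required for 50% inhibition of growth. TGI is the concentration that stops growth completely.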
# Assays:
# Assay in all cases: inhibition of tumour cell growth, NCI panel, 48 h
# ACHN renal = tested on: ACHN renal
# CCRF-CEM leukemia = tested on: CCRF-CEM leukemia
# COLO 205 colon = tested on: COLO 205 colon
# NCI-H23 lung = tested on: NCI-H23 lung
# NCI-H460 lung = tested on: NCI-H460 lung
# NCI/ADR-RES ovarian = tested on: NCI/ADR-RES ovarian
# SR leukemia = tested on: SR leukemia
# UO-31 renal = tested on: UO-31 renal
# HOP-62 NSCLC = tested on: HOP-62 NSCLC
# K-562 leukemia = tested on: K-562 leukemia
SMILES,TGI (ACHN renal) [µM],TGI (CCRF-CEM leukemia) [µM],TGI (COLO 205 colon) [µM],TGI (NCI-H23 lung) [µM],TGI (NCI-H460 lung) [µM],TGI (NCI/ADR-RES ovarian) [µM],TGI (SR leukemia) [µM],TGI (UO-31 renal) [µM],TGI (HOP-62 NSCLC) [µM],TGI (K-562 leukemia) [µM],GI50 (ACHN renal) [µM],GI50 (HOP-62 NSCLC) [µM],GI50 (NCI-H23 lung) [µM],GI50 (NCI-H460 lung) [µM],GI50 (NCI/ADR-RES ovarian) [µM],GI50 (CCRF-CEM leukemia) [µM],GI50 (COLO 205 colon) [µM],GI50 (UO-31 renal) [µM]
CN(C)CCNc1ccc2c(=O)n(CCN(C)C)c(=O)n3c4ccc(O)cc4c(=O)c1c23,< 0.01,< 0.01,0.099,0.186,0.174,9.39,< 0.01,0.282,,,,,,,,,,
CCO/C(=N/S(=O)(=O)C(F)(F)F)N(C(C)C)C(C)C,> 100,> 100,> 100,> 100,> 100,> 100,,,,,,,,,,,,
CNC(C)(C)Cc1ccc(Cl)cc1,> 100,> 100,> 100,> 100,> 100,,,,> 100,> 100,,,,,,,,
CC1=NNC(=O)C1C1C(=O)NN=C(c2c[nH]c3ccccc23)C1Br (centres undefined),> 100,65.5,> 100,> 100,> 100,> 100,,> 100,> 100,> 100,,,,,,,,
N#CCCN(CCC#N)c1ccc(/C=C2\N=C(c3ccccc3)N(c3ccc(F)cc3)C2=O)cc1,> 100,,> 100,,> 100,> 100,> 100,> 100,> 100,> 100,,,,,,,,
COc1ccc(N2CC(=O)N(C(=O)COc3ccc(OCC(=O)N4C(=O)CN(c5ccc(OC)cc5)C4=S)cc3)C2=S)cc1,> 100,,> 100,> 100,> 100,> 100,,> 100,,> 100,,,,,,,,
Cn1nc2ccc([N+](=O)[O-])c(Cn3nnc4ccccc43)c2n1,> 100,> 100,> 100,> 100,> 100,> 100,,> 100,> 100,> 100,,,,,,,,
O=S1(=O)c2ccccc2Oc2ccc(C(/C=N/O)=N/O)cc21,> 100,72.1,> 100,,> 100,53.9,,68.8,> 100,> 100,,,,,,,,
N#Cc1c(-c2ccc(Cl)cc2)c2c(nn3c4ccc5ccccc5c4nnc23)[nH]c1=O,8.76,> 100,10.6,4.56,16.2,26,,12.6,7.97,> 69.6,,,,,,,,
O=C(Nc1ccc(N2C(=O)CSC2c2ccccc2O)cc1)c1ccc(N2C(=O)CSC2c2ccccc2O)cc1 (centres undefined),> 100,> 100,> 100,> 100,> 100,> 100,,> 100,> 100,> 100,,,,,,,,
O=c1[nH]c(Nc2ccccc2)nc2c1ncn2CC(O)CSCCO (centres undefined),> 100,> 100,> 100,> 100,> 100,> 100,> 100,,> 100,,,,,,,,,
CSc1ncc2c(n1)C(C#N)C1Sc3ccccc3N1C2=O (centres undefined),> 100,,> 100,> 100,> 100,> 100,,> 100,> 100,,,,,,,,,
Nc1n(CC(=O)c2ccccc2)nc2sc(-c3ccccc3)n[n+]12,29.6,> 100,47,59.5,30.5,> 100,,40.3,52.5,> 100,,,,,,,,
CC(=O)NC1C(OCc2ccccc2)OC(CO)C(O)C1OCC(=O)N1CCCC1C(=O)N[C@@H](CCC(=O)NCCCCNc1c2ccccc2nc2cccc([N+](=O)[O-])c12)C(N)=O (some centres undefined),> 100,,46.4,40.8,61.4,> 100,> 100,> 100,> 100,> 100,,,,,,,,
Cn1c(=O)c2c(nc3n(CC(O)CCl)c(=O)ccn23)n(C)c1=O (centres undefined),> 100,> 100,> 100,> 100,> 100,> 100,,> 100,> 100,> 100,,,,,,,,
Oc1cc(Cc2ccccc2)c(Cc2ccccc2)cc1O,> 10,> 10,> 10,> 10,> 10,> 10,,> 10,> 10,> 10,,,,,,,,
CN1CCC(CNc2cc(C3(C(=O)Nc4cc(C(=O)Nc5ccc(Cl)c(C(F)(F)F)c5)ccc4F)CC3)ncn2)CC1,4.98,,,4.57,5.38,36.6,,,3.97,,2.16,2,1.94,2.13,5.46,,,
CCNCCNC(=O)c1ccc(I)cc1,> 100,> 100,,> 100,> 100,> 100,> 100,> 100,,> 100,,,,,,,,

SMILES,TGI (ACHN renal) [µM],TGI (CCRF-CEM leukemia) [µM],TGI (COLO 205 colon) [µM],TGI (NCI-H23 lung) [µM],TGI (NCI-H460 lung) [µM],TGI (NCI/ADR-RES ovarian) [µM],TGI (SR leukemia) [µM],TGI (UO-31 renal) [µM],TGI (HOP-62 NSCLC) [µM],TGI (K-562 leukemia) [µM],GI50 (ACHN renal) [µM],GI50 (HOP-62 NSCLC) [µM],GI50 (NCI-H23 lung) [µM],GI50 (NCI-H460 lung) [µM],GI50 (NCI/ADR-RES ovarian) [µM],GI50 (CCRF-CEM leukemia) [µM],GI50 (COLO 205 colon) [µM],GI50 (UO-31 renal) [µM]
C1=C(c2ccccc2)SC(N2CCCCC2)S1 (centres undefined),,> 100,> 100,> 100,> 100,,> 100,> 100,> 100,> 100,,,,,,,,
N=C1C(=N)c2ccccc2-c2ccccc21.[Cl-].[Ru+2].c1ccc(-c2ccccn2)nc1.c1ccc(-c2ccccn2)nc1,> 100,> 100,,> 100,> 100,,> 100,> 100,> 100,> 100,,,,,,,,
O=c1[nH]/c(=C/c2ccc(OCc3ccccc3)cn2)c(=O)[nH]/c1=C/c1ccccc1,> 100,,> 25.4,,> 100,0.229,14.4,> 100,> 100,> 100,,,,,,,,
COC1=NCc2ccccc2-c2ccccc21,> 100,> 100,,> 100,> 100,,,> 100,,> 100,,,,,,,,
CCCCCOc1ccc(C=Nc2ccc(CCc3ccc(N=Cc4ccc(OCCCCC)cc4)cc3)cc2)cc1,,> 100,> 100,> 100,> 100,> 100,,> 100,> 100,> 100,,,,,,,,
Cc1ccc2c(c1)-c1nc(N)c(C#N)c(-c3ccc(Cl)cc3)c1CCS2(=O)=O,> 100,72,65.6,> 100,> 100,> 100,65.6,86.2,,,,,,,,,,
CC1CC[C@@]2(OC1)OC1C[C@H]3[C@@H]4CC=C5CC(OC6OC(CO)C(OC7OC(CO)C(O)C(OC8OCC(O)C(O)C8O)C7OC7OC(CO)C(OC8OC(C)C(OC9OC(C)C(O)C(O)C9O)C(O)C8O)C(O)C7O)C(O)C6O)CCC5(C)[C@H]4CCC3(C)C1[C@@H]2C (some centres undefined),9.92,21.9,15.6,16.7,20.2,17.8,50,,19,19.6,,,,,,,,
NC(=O)Nc1c(Cl)cc(S(N)(=O)=O)cc1Cl,,> 100,> 100,> 100,,> 100,,> 100,> 100,> 100,,,,,,,,
[N-]=[N+]=Nc1c(Cc2ccccc2)c(Cl)nc2ccccc12,> 100,> 100,35.2,> 100,> 100,> 100,,> 100,51,83.7,,,,,,,,
C#CCNC(CSSCC(N)C(=O)O)C(=O)O (centres undefined),> 100,> 100,> 100,> 100,,> 100,,> 100,> 100,,,,,,,,,
C=CCC1(C#N)C(=S)NC2=C(C(=O)CC(C)(C)C2)C1c1ccccc1 (centres undefined),,> 100,> 100,> 100,,> 100,> 100,> 100,,> 100,,,,,,,,
CCOC(=O)C(C#N)(Cc1c[nH]c2ccccc12)NC(C)=O (centres undefined),> 100,> 100,> 100,> 100,> 100,,,> 100,> 100,> 100,,,,,,,,
O=C(O)CC(Cc1ccccc1Cl)C(=O)O (centres undefined),> 100,> 100,> 100,> 100,> 100,> 100,,> 100,> 100,> 100,,,,,,,,
Cc1cc([NH-])c([NH-])cc1C.[Cl][Pt+2][Cl],,61.5,34.9,37,> 43.8,42.7,,> 100,> 77,> 41.5,,> 42.8,14.2,4.97,16.3,1.95,14.8,> 77.4
C=CCn1c(=O)c(C)cn(COCCO)c1=O,> 100,> 100,> 100,> 100,> 100,> 100,,> 100,> 100,> 100,,,,,,,,
CCn1nc(C)c2c1C(=O)NCC(=O)N2,> 100,,> 100,> 100,> 100,,,> 100,,,,,,,,,,
COc1ccc([C@H]2[C@H]3COC(=O)[C@H]3C(C#N)=C3Sc4ccccc4N32)cc1,> 100,47.7,34.5,78.8,> 100,> 62.5,,> 100,> 100,> 100,,,,,,,,

# Source: PubChem BioAssay (NCI)
